According to ChEMBL document CHEMBL1152374, “Regioselective synthesis of methylated epigallocatechin gallate via nitrobenzenesulfonyl (Ns) protecting group” (Bioorg Med Chem Lett, 2009):

Legend:
Matrilysin = target: T1, Matrilysin (Homo sapiens, UniProt P09237); assay: Inhibition of human recombinant MMP7 expressed in Escherichia coli by fluorogenic peptide cleavage assay
T1 sequence (P09237 whole entry): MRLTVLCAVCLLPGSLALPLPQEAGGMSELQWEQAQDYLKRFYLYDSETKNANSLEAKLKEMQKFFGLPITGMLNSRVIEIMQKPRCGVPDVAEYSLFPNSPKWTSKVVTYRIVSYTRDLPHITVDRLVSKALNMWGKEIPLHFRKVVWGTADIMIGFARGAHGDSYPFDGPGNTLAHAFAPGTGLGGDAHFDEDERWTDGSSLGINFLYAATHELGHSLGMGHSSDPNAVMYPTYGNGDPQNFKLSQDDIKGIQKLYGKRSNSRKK

[1] = target: 72 kDa type IV collagenase (Homo sapiens, UniProt P08253); assay: Inhibition of human recombinant MMP2 expressed in Escherichia coli by fluorogenic peptide cleavage assay
[2] = target: Matrix metalloproteinase-14 (Homo sapiens, UniProt P50281); assay: Inhibition of human recombinant MT1-MMP expressed in Escherichia coli by fluorogenic peptide cleavage assay

Sequence of 72 kDa type IV collagenase (P08253 whole entry): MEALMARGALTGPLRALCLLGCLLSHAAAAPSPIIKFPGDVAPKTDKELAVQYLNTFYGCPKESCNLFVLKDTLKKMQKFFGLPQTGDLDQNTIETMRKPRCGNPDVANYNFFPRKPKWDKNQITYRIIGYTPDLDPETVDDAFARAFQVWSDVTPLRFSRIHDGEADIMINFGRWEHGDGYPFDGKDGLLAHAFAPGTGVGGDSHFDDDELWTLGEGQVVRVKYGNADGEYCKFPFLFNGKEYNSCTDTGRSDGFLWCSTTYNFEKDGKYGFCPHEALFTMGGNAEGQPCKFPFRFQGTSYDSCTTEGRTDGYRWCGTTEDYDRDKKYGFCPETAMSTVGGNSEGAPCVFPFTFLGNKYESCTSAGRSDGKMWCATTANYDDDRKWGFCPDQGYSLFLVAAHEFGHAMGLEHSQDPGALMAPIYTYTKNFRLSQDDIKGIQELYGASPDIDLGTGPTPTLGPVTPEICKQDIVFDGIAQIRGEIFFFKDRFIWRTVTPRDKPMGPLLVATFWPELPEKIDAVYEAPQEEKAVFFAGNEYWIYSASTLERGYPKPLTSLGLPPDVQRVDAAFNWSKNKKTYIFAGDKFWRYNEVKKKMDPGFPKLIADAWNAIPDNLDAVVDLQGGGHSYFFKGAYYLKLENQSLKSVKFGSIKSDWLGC

Row | IC50 (Matrilysin) | IC50 [1] | IC50 [2] | SMILES
1 | > 100 µM | 34 µM | 3.7 µM | COc1c(O)cc(C(=O)O[C@@H]2Cc3c(O)cc(O)cc3O[C@@H]2c2ccc(O)c(O)c2)cc1O
2 | 72 µM | 18.7 µM | 12.5 µM | COc1c(O)cc(C(=O)O[C@@H]2Cc3c(O)cc(O)cc3O[C@@H]2c2cc(O)c(O)c(O)c2)cc1O
3 | > 100 µM | 22 µM | > 100 µM | COc1c(O)cc(C(=O)O[C@H]2Cc3c(O)cc(O)cc3O[C@@H]2c2ccc(O)c(O)c2)cc1O
4 | > 100 µM | 88 µM | 15.6 µM | COc1cc(C(=O)O[C@@H]2Cc3c(O)cc(O)cc3O[C@@H]2c2ccc(O)c(O)c2)cc(O)c1O
5 | 32 µM | 19 µM | 10.5 µM | COc1c(O)cc(C(=O)O[C@@H]2Cc3c(O)cc(O)cc3O[C@H]2c2cc(O)c(O)c(O)c2)cc1O
6 | 20 µM | 8.7 µM | 1.7 µM | COc1cc(C(=O)O[C@@H]2Cc3c(O)cc(O)cc3O[C@@H]2c2cc(O)c(O)c(O)c2)cc(O)c1O
7 | 20 µM | 5.4 µM | 3.1 µM | COc1cc(C(=O)O[C@@H]2Cc3c(O)cc(O)cc3O[C@H]2c2cc(O)c(O)c(O)c2)cc(O)c1O
8 | > 100 µM | 28 µM | 52 µM | COc1cc(C(=O)O[C@H]2Cc3c(O)cc(O)cc3O[C@@H]2c2ccc(O)c(O)c2)cc(O)c1O

Row | SMILES | IC50 (Matrilysin) | IC50 [1] | IC50 [2]
9 | O=C(O[C@@H]1Cc2c(O)cc(O)cc2O[C@@H]1c1cc(O)c(O)c(O)c1)c1cc(O)c(O)c(O)c1 [EPIGALOCATECHIN GALLATE] | 21.5 µM | 9.6 µM | 6.8 µM
